Experimental data published in ChEMBL document CHEMBL1201862, “PubChem BioAssay data set” (2004).
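The compound was tested at five concentrations on cells cultured in 96-well plates, with a 48-hour exposure period. At the GI50, growth is halved.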 The source made the active and inactive calls. Rule as the data show it: active = GI50 up to about 1.1 µM and inactive = higher.

Tests used:
Assay in all cases: NCI tumour cell line growth inhibition, 48 h
786-0 = system: 786-0
A549 = system: A549
ACHN = system: ACHN
DMS-273 = system: DMS-273
HOP-92 = system: HOP-92
KM12 = system: KM12
LOX IMVI = system: LOX IMVI
M14 = system: M14
OVCAR-5 = system: OVCAR-5
RPMI-8226 = system: RPMI-8226
RXF 393 = system: RXF 393
SK-MEL-2 = system: SK-MEL-2
SK-MEL-5 = system: SK-MEL-5
SN12C = system: SN12C
SNB-19 = system: SNB-19
SR = system: SR
TK-10 = system: TK-10

Measured: GI50

[O-][S+]1C(=c2ccc(=C3Sc4ccccc4S3)cc2)Sc2ccccc21 (stereo not drawn)
inactive: 786-0 17 µM | A549 17.6 µM | ACHN 19.5 µM | DMS-273 18.9 µM | HOP-92 > 67.3 µM | KM12 17.4 µM | LOX IMVI 17.9 µM | M14 15.1 µM | OVCAR-5 18.3 µM | RPMI-8226 > 100 µM | RXF 393 24.2 µM | SK-MEL-2 21.3 µM | SK-MEL-5 19.2 µM | SN12C 15.6 µM | SNB-19 17 µM | SR 89.5 µM | TK-10 > 100 µM

O=C1OC2(OC2c2ccccc2)c2ccccc21 (stereo not drawn)
inactive: 786-0 > 100 µM | A549 > 100 µM | ACHN > 100 µM | DMS-273 > 100 µM | HOP-92 > 100 µM | KM12 > 100 µM | LOX IMVI > 100 µM | M14 > 100 µM | OVCAR-5 > 100 µM | RPMI-8226 > 100 µM | RXF 393 > 100 µM | SK-MEL-2 > 100 µM | SK-MEL-5 > 100 µM | SN12C > 100 µM | SNB-19 > 100 µM | SR > 100 µM | TK-10 > 100 µM

O=C(CCc1nnc(S)[nH]1)Nc1cc(Cl)ccc1Cl
inactive: 786-0 > 100 µM | A549 > 100 µM | ACHN > 100 µM | DMS-273 > 100 µM | HOP-92 > 100 µM | KM12 > 100 µM | M14 > 100 µM | OVCAR-5 > 100 µM | RPMI-8226 > 100 µM | SK-MEL-2 > 100 µM | SK-MEL-5 > 100 µM | SN12C > 100 µM | SNB-19 > 100 µM | SR > 100 µM | TK-10 > 100 µM

N#C/N=C1\NC(Cc2ccccc2)C(=O)N1CCc1c[nH]c2ccccc12 (stereo not drawn)
inactive: 786-0 18.5 µM | A549 27 µM | DMS-273 27.7 µM | KM12 29.4 µM | LOX IMVI 35.2 µM | M14 35.1 µM | RPMI-8226 25.6 µM | RXF 393 > 10 µM | SK-MEL-5 17.8 µM | SN12C 29.9 µM | SNB-19 37 µM | SR 33.7 µM | TK-10 26.6 µM

Nc1ccc(C(c2ccccc2)(c2ccccc2)c2ccccc2)cc1
inactive: 786-0 48.2 µM | A549 > 100 µM | ACHN 52.5 µM | DMS-273 50.1 µM | HOP-92 14 µM | KM12 55.6 µM | LOX IMVI 47.6 µM | M14 15.8 µM | RPMI-8226 39 µM | RXF 393 10.3 µM | SK-MEL-2 > 100 µM | SK-MEL-5 42.2 µM | SN12C 66.5 µM | SR 36.6 µM | TK-10 20.2 µM

CC(C)(C)N/N=C(\C(=O)Nc1nnc(S)[nH]1)C1C(=O)Nc2ccccc2[S+]1[O-] (stereo not drawn)
inactive: 786-0 > 100 µM | A549 > 100 µM | ACHN > 100 µM | DMS-273 > 100 µM | KM12 > 100 µM | LOX IMVI > 100 µM | M14 > 100 µM | OVCAR-5 > 100 µM | RPMI-8226 > 100 µM | RXF 393 > 100 µM | SK-MEL-2 > 100 µM | SK-MEL-5 > 100 µM | SN12C > 100 µM | SNB-19 > 100 µM | SR > 100 µM | TK-10 > 100 µM

Cc1cccc(C(C)(C)C)c1NC(=O)CC1C(=O)Nc2ccccc2S1(=O)=O (stereo not drawn)
inactive: 786-0 10 µM | A549 13.6 µM | ACHN 10.8 µM | DMS-273 4.25 µM | HOP-92 11.5 µM | LOX IMVI 5.98 µM | M14 12.8 µM | OVCAR-5 13 µM | RPMI-8226 3.24 µM | RXF 393 13.4 µM | SK-MEL-2 9.12 µM | SK-MEL-5 12.1 µM | SN12C 12.3 µM | SNB-19 15.5 µM | SR 3.21 µM | TK-10 20.5 µM

O=C(CC1Sc2ccccc2NC1=O)Nc1cc(Cl)ccc1Cl (stereo not drawn)
inactive: 786-0 > 100 µM | A549 > 100 µM | ACHN > 100 µM | DMS-273 > 100 µM | HOP-92 > 100 µM | LOX IMVI > 100 µM | M14 > 100 µM | OVCAR-5 > 100 µM | RPMI-8226 > 100 µM | RXF 393 > 100 µM | SK-MEL-2 > 100 µM | SK-MEL-5 > 100 µM | SN12C > 100 µM | SNB-19 > 100 µM | SR 27.3 µM | TK-10 > 100 µM

C/C(O)=C1\CC2CN3CCc4c([nH]c5ccccc45)C3CC2CC1=O (stereo not drawn)
inactive: 786-0 38 µM | A549 > 100 µM | ACHN 82.8 µM | DMS-273 57.4 µM | KM12 > 100 µM | LOX IMVI 26.1 µM | M14 49.4 µM | OVCAR-5 70 µM | RXF 393 20.9 µM | SK-MEL-2 43 µM | SK-MEL-5 55.2 µM | SN12C 71.1 µM | SNB-19 > 100 µM | SR 23.4 µM | TK-10 > 100 µM

CC(C)NC(=O)OCc1nnn2c1C(OC(=O)NC(C)C)CC2 (stereo not drawn)
inactive: 786-0 > 100 µM | A549 > 100 µM | DMS-273 > 100 µM | HOP-92 > 100 µM | KM12 > 100 µM | M14 > 100 µM | OVCAR-5 > 100 µM | RPMI-8226 > 100 µM | RXF 393 > 100 µM | SK-MEL-2 > 100 µM | SK-MEL-5 > 100 µM | SN12C > 100 µM | SNB-19 > 100 µM | SR > 100 µM | TK-10 > 100 µM

COC(=O)[C@H]1COC(=S)N1C(=O)[C@@H](C)[C@H](O)C(C)C
inactive: 786-0 > 100 µM | A549 > 100 µM | ACHN > 100 µM | DMS-273 > 100 µM | HOP-92 > 100 µM | KM12 > 100 µM | LOX IMVI 57.4 µM | M14 > 100 µM | OVCAR-5 > 100 µM | RPMI-8226 > 100 µM | RXF 393 > 100 µM | SK-MEL-2 > 100 µM | SK-MEL-5 > 100 µM | SN12C > 100 µM | SNB-19 > 100 µM | SR > 100 µM | TK-10 > 100 µM

COc1ccc2c(c1)CN1CCc3c(cc(OC)c(OC)c3OC)C1C2 (stereo not drawn)
inactive: 786-0 > 100 µM | A549 > 100 µM | ACHN > 100 µM | DMS-273 > 100 µM | HOP-92 > 100 µM | M14 87.1 µM | OVCAR-5 64.1 µM | RPMI-8226 38.4 µM | RXF 393 > 100 µM | SK-MEL-2 > 100 µM | SK-MEL-5 36.5 µM | SN12C > 100 µM | SNB-19 > 100 µM | SR > 100 µM | TK-10 > 100 µM

C[C@]12CCc3nonc3C1CC[C@@H]1C2CC[C@]2(C)NC(=O)CCC12 (stereo partly drawn)
inactive: 786-0 > 100 µM | A549 > 100 µM | ACHN > 100 µM | DMS-273 > 100 µM | HOP-92 > 100 µM | KM12 > 100 µM | LOX IMVI > 100 µM | M14 > 100 µM | OVCAR-5 > 100 µM | RPMI-8226 > 100 µM | RXF 393 > 100 µM | SK-MEL-2 > 100 µM | SK-MEL-5 > 100 µM | SN12C > 100 µM | SNB-19 > 100 µM | TK-10 > 100 µM
